According to US12648975B2, “Lactobacillus plantarum against Helicobacter pylori infection, and use thereof” (WECARE PROBIOTICS CO., LTD., priority 2021, dated 2026):

What was measured:
[1] = tested on: Helicobacter pylori; experiment: Inhibition zone experiment (Oxford cup method) of health care product, Example 9; assay type: cell-based; conditions: 100 μL sample
Experimental: The health care product for inhibiting Helicobacter pylori infection was prepared into a suspension (a density of Lactobacillus plantarum Lp05 was 10^9 CFU/mL) with water, 100 μL suspension was taken and coated onto a surface of a punctured Colombian blood agar medium (a volume of the medium was 20 mL) containing 5% sheep blood without an antibiotic, and any one of the following groups of liquids was added separately to form different experimental groups: 100 μL suspension of the health care product to be tested, 100 μL positive control (a metronidazole solution having a mass concentration of 0.025%), 100 μL negative control (a PBS buffer) and a blank control (100 μL MRS liquid medium). Effects of inhibiting the growth of Helicobacter pylori at 48 h and 72 h were determined through an Oxford cup method.

[2] = tested on: Helicobacter pylori; experiment: Inhibition zone experiment (Oxford cup method), Example 6; assay type: cell-based; conditions: 100 μL sample
Experimental: In this example, an inhibitory effect of the Lactobacillus plantarum in Example 3 on the growth of Helicobacter pylori was verified. Steps are described below. • (1) Helicobacter pylori at −80° C. was taken out, coated on a Columbia blood agar medium containing 5% sheep blood (v/v) for activation and culture and cultured in a microaerobic environment for 48 h at 37° C. • (2) The Lactobacillus plantarum was inoculated in an MRS liquid medium and cultured for 18 h at 37° C. for activation two consecutive times to obtain an activation solution. The activation solution was inoculated in an MRS liquid medium at an inoculum volume of 2% (v/v) and cultured for 18 h at 37° C. to obtain a bacterial solution. The bacterial solution was centrifuged at 8000 g for 10 min, and supernatant was taken and passed through a 0.22 μm sterile filtration membrane to obtain supernatant of the Lactobacillus plantarum. […] Effects of inhibiting the growth of Helicobacter pylori at 48 h and 72 h by the Lactobacillus plantarum were determined through the Oxford cup method.

Cc1ncc([N+](=O)[O-])n1CCO [Positive control, metronidazole]
Diameter of Inhibition Zone at 48 h (mm) ([1]; 48 h of culture): 9.3 ± 2.5 mm
Diameter of Inhibition Zone at 72 h (mm) ([1]; 72 h of culture): 9.8 ± 2.5 mm
Diameter of Inhibition Zone at 48 h (mm) ([2]; 48 h of culture): 11.2 ± 2.3 mm
Diameter of Inhibition Zone at 72 h (mm) ([2]; 72 h of culture): 12.4 ± 3.1 mm
